From ChEMBL document CHEMBL1135449, “A novel series of hybrid compounds derived by combining 2-aminotetralin and piperazine fragments: binding activity at D2 and D3 receptors” (Bioorg Med Chem Lett, 2002)
pKi: −log10 of the molar value.

How the values were obtained:
[1] = molecular target: D(2) dopamine receptor (Homo sapiens, UniProt P14416); test: Tested for the binding constant against cloned human Dopamine receptor D2L in HEK cells by displacing [3H]spiperone; format: cell-based, HEK293
[2] = molecular target: D(3) dopamine receptor (Homo sapiens, UniProt P35462); test: Tested for the binding constant against cloned human Dopamine receptor D3 in HEK cells by displacing [3H]spiperone; format: cell-based, HEK293
Sequence of D(3) dopamine receptor (P35462 whole entry): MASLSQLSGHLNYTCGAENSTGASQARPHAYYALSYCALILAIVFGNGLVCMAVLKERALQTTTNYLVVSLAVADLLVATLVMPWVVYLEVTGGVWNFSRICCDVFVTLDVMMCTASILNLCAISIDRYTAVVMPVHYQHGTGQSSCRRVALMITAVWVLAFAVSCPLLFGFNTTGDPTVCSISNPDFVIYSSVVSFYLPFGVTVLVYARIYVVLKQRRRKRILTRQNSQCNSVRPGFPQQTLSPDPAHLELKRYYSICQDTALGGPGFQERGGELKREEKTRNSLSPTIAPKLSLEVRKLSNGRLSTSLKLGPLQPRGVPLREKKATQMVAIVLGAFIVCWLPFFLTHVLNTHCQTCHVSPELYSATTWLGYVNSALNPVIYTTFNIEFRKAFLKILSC

Sequence of D(2) dopamine receptor (P14416 whole entry): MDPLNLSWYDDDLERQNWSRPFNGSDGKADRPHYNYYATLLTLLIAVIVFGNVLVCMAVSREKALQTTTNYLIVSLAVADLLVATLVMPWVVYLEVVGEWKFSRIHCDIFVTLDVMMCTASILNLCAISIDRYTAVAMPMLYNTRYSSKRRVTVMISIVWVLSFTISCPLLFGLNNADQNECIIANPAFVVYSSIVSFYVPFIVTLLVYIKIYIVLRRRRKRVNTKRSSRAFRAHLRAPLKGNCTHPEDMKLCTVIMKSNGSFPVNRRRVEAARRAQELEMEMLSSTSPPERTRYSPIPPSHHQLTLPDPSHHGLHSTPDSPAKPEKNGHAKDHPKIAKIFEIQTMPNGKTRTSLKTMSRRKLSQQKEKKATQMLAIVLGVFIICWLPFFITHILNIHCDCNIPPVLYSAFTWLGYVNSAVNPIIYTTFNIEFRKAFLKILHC

pKi [1] | pKi [2] | SMILES
6.45 | 7.25 | O=C(NCCN(CCCN1CCN(c2ccccc2)CC1)C1CCc2ccc(O)cc2C1)c1ccccc1 (stereo not drawn)
7.56 | 8.95 | CCCN(CCN1CCN(c2cccc(Cl)c2Cl)CC1)C1CCc2ccc(O)cc2C1 (stereo not drawn)
6.11 | 6.12 | O=C(NCCCCN(CCCN1CCN(c2ccccc2)CC1)C1CCc2ccc(O)cc2C1)c1ccccc1 (stereo not drawn)
6.21 | 7.30 | N#CCCCN(CCCN1CCN(c2ccccc2)CC1)C1CCc2ccc(O)cc2C1 (stereo not drawn)
